From patent US7473688B2, “Indolobenzazepine HCV NS5B inhibitors” (Bristol-Myers Squibb Company, priority 2005, dated 2009)
Like-named read-outs stand apart in the source and are kept apart here.

Experiments:
HCV replicon = HCV replicon FRET assay; type: cell-based; conditions: Hepatitis C virus
Excerpt: FRET Assay Preparation. To perform the HCV FRET screening assay, 96-well cell culture plates were used. The FRET peptide (Anaspec, Inc.) (Taliani et al., Anal. Biochem. 1996, 240, 60-67) contains a fluorescence donor, EDANS, near one end of the peptide and an acceptor, DABCYL, near the other end. The fluorescence of the peptide is quenched by […] resonance energy transfer (RET) between the donor and the acceptor, but as the NS3 protease cleaves the peptide the products are released from RET quenching and the fluorescence of the donor becomes apparent. The assay reagent was made as follows: 5× cell Luciferase cell culture lysis reagent from Promega (#E153A) diluted to 1× with dH2O, NaCl added to 150 mM final, the FRET peptide diluted to 20 uM final from a 2 mM stock.
To prepare plates, HCV replicon cells, with or without a Renilla luciferase reporter gene, were trypsinized and placed into each well of a 96-well plate with titrated test compounds added in columns 3 through 12; columns 1 and 2 contained a control compound (HCV protease inhibitor), and the bottom row contained cells without compound. The plates were then placed in a CO2 incubator at 37° C.
Assays. Subsequent to addition of the test compounds described above (FRET Assay Preparation), at various times the plate was removed and Alamar blue solution (Trek Diagnostics, #00-100) was added per well as a measure of cellular toxicity. After reading in a Cytoflour 4000 instrument (PE Biosystems), plates were rinsed with PBS and then used for FRET assay by the addition of 30 ul of the FRET peptide assay reagent described above (FRET Assay Preparation) per well. The plate was then placed into the Cytoflour 4000 instrument which had been set to 340 excite/490 emission, automatic mode for 20 cycles and the plate read in a kinetic mode. Typically, the signal to noise using an endpoint analysis after the reads was at least three-fold. Alternatively, after Alamar blue reading, plates were rinsed with PBS, 50 ul of DMEM (high glucose) without phenol red was added and plates were then used for luciferase assay using the Promega Dual-Glo Luciferase Assay System.
Compound analysis was determined by quantification of the relative HCV replicon inhibition and the relative cytotoxicity values. To calculate cytoxicity values, the average Alamar Blue fluorescence signals from the control wells were set as 100% non-toxic. The individual signals in each of the compound test wells were then divided by the average control signal and multiplied by 100% to determine […]. To calculate the HCV replicon inhibition values, an average background value was obtained from the two wells containing the highest amount of HCV protease inhibitor at the end of the assay period. These numbers were similar to those obtained from naïve Huh-7 cells.
The background numbers were then subtracted from the average signal obtained from the control wells and this number was used as 100% activity. The individual signals in each of the compound test wells were then divided by the averaged control values after background subtraction and multiplied by 100% to determine percent activity. EC50 values for a protease inhibitor titration were calculated as the concentration which caused a 50% reduction in FRET or luciferase activity. The two numbers generated for the compound plate, percent cytoxicity and percent activity were used to determine compounds of interest for further analysis.

HCV NS5B = molecular target: T1, HCV NS5B (Hepatitis C virus genotype 1b, UniProt Q9WMX2); experiment: HCV NS5B RdRp enzyme assay (preincubation protocol); type: biochemical
T1 construct: The protein was expressed with an 18 amino acid C-terminal truncation to enhance the solubility; made in house; host or cells: E. coli BL21 (DE3), pET21a
T1 sequence (Q9WMX2 2420-2992): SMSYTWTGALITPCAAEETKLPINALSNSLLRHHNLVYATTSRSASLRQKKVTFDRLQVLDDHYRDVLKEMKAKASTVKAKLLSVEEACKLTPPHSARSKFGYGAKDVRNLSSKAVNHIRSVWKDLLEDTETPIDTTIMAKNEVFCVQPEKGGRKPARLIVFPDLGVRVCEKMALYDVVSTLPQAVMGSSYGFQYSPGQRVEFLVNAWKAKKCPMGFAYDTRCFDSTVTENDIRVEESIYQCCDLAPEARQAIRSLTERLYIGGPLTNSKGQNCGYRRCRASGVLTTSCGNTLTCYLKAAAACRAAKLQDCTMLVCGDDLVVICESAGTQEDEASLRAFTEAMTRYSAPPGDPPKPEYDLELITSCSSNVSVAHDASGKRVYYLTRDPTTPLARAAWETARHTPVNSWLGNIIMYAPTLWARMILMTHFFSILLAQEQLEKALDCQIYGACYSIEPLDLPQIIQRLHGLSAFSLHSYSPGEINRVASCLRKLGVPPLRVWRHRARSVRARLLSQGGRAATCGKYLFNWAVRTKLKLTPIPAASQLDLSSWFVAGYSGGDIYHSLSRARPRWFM
Summary of the method: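 C-terminally truncated (Δ18) genotype 1b NS5B from E. coli, 14 nM, added to compound, then polyA template (0.2 nM), 3H-UTP (0.29 μM) and oligo-dT12 primer precaptured on streptavidin SPA beads. 4 h at 30 °C, pH 7.5, 2% DMSO; SPA readout; IC50 from seven concentrations by logistic fit.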

[1] = Table 1b, FRET assay, read-out: EC50*
[2] = Table 1, FRET assay, read-out: EC50*
[3] = Table 1a, FRET assay, read-out: EC50*

| SMILES | EC50 (HCV replicon; [2]) [nM] | IC50 (HCV NS5B; Table 1, read-out: IC50*) [nM] | further results |
| --- | --- | --- | --- |
| COc1ccc2c(c1)C=C(C(=O)N1CC(NC(=O)OC(C)(C)C)C1)Cn1c-2c(C2CCCCC2)c2ccc(C(=O)NS(=O)(=O)N(C)C)cc21 |  |  | EC50 (HCV replicon; [1]): 30 to 1000 nM; IC50 (HCV NS5B; Table 1b, read-out: IC50*): 20 to 1000 nM |
| COc1ccc2c(c1)CC(NC(=O)N(C)CC(=O)NC(C)C)Cn1c-2c(C2CCCCC2)c2ccc(C(=O)NS(=O)(=O)N(C)C)cc21 (stereo not shown) |  |  | EC50 (HCV replicon; [1]): 30 to 1000 nM; IC50 (HCV NS5B; Table 1b, read-out: IC50*): 20 to 1000 nM |
| O=C(O)c1ccc2c(C3CCCCC3)c3n(c2c1)C[C@H](NC(=O)N1CCOCC1)Cc1ccccc1-3 | 70 to 1000 | 10 to 1000 |  |
| COc1ccc2c(c1)CC(C(=O)N1CC(CO)C1)Cn1c-2c(C2CCCCC2)c2ccc(C(=O)NS(=O)(=O)N(C)C)cc21 (stereo not shown) |  |  | EC50 (HCV replicon; [1]): 30 to 1000 nM; IC50 (HCV NS5B; Table 1b, read-out: IC50*): 20 to 1000 nM |
| CN(C)S(=O)(=O)NC(=O)c1ccc2c(C3CCCCC3)c3n(c2c1)CC(C(=O)N1CCN(c2nccs2)CC1)=Cc1ccccc1-3 | 70 to 1000 | 10 to 1000 |  |
| COc1ccc2c(c1)CC(NC(=O)N1CCOC(CN3CCCC3)C1)Cn1c-2c(C2CCCCC2)c2ccc(C(=O)NS(=O)(=O)N(C)C)cc21 (stereo not shown) |  |  | EC50 (HCV replicon; [3]): 30 to 1000 nM; IC50 (HCV NS5B; Table 1a, read-out: IC50*): 10 to 1000 nM |
| CN(C)S(=O)(=O)NC(=O)c1ccc2c(C3CCCCC3)c3n(c2c1)CC(C(=O)N1CCC(N2CCCC2=O)CC1)=Cc1ccccc1-3 | 70 to 1000 | 10 to 1000 |  |
| COC[C@H]1CN(C(=O)C2=Cc3cc(OC)ccc3-c3c(C4CCCCC4)c4ccc(C(=O)NS(=O)(=O)N(C)C)cc4n3C2)CCO1 |  |  | EC50 (HCV replicon; [1]): 30 to 1000 nM; IC50 (HCV NS5B; Table 1b, read-out: IC50*): 20 to 1000 nM |
| CN(C)S(=O)(=O)NC(=O)c1ccc2c(C3CCCCC3)c3n(c2c1)CC(C(=O)N1CCCC(F)(F)C1)=Cc1ccccc1-3 | 70 to 1000 | 10 to 1000 |  |
| CN(C)S(=O)(=O)NC(=O)c1ccc2c(C3CCCCC3)c3n(c2c1)CC(C(=O)N1CCC(N2CCC(F)CC2)CC1)=Cc1ccccc1-3 | 70 to 1000 | 10 to 1000 |  |
| C[C@@H]1CN(C(=O)C2=Cc3ccccc3-c3c(C4CCCCC4)c4ccc(C(=O)NS(=O)(=O)N5CCOCC5)cc4n3C2)C[C@H](C)O1 | 70 to 1000 | 10 to 1000 |  |
| O=C(O)c1ccc2c(C3CCCCC3)c3n(c2c1)CC(C(=O)N1CCC(N2CCCC2=O)CC1)=Cc1ccccc1-3 | 70 to 1000 | 10 to 1000 |  |
| COC(=O)c1ccc2c(C3CCCCC3)c3n(c2c1)CC(C(=O)N1CCC(N2CCCC(F)C2)CC1)=Cc1ccccc1-3 (stereo not shown) | > 370 | > 1000 |  |
| COC(=O)c1ccc2c(C3CCCCC3)c3n(c2c1)CC(C(=O)N1CCC(C(N)=O)C1)=Cc1ccccc1-3 (stereo not shown) | 1000 to 10000 | > 1000 |  |
| COc1ccc2c(c1)C=C(C(=O)N1CCOCC1)Cn1c-2c(C2CCCCC2)c2ccc(C(=O)NS(=O)(=O)N3CCOCC3)cc21 [drawing 237] |  |  | EC50 (HCV replicon; [3]): 30 to 1000 nM; IC50 (HCV NS5B; Table 1a, read-out: IC50*): 10 to 1000 nM |
| COc1ccc2c(c1)CC(NC(=O)N1CCC(N3CCCC3)CC1)Cn1c-2c(C2CCCCC2)c2ccc(C(=O)NS(=O)(=O)N(C)C)cc21 (stereo not shown) |  |  | EC50 (HCV replicon; [3]): 30 to 1000 nM; IC50 (HCV NS5B; Table 1a, read-out: IC50*): 10 to 1000 nM |
| O=C(O)c1ccc2c(C3CCCCC3)c3n(c2c1)CC(C(=O)N1CCC(N2CC[C@@H](F)C2)CC1)=Cc1ccccc1-3 | 70 to 1000 | 10 to 1000 |  |
| COc1ccc2c(c1)C=C(C(=O)N1CCC(C(=O)N3CCOCC3)CC1)Cn1c-2c(C2CCCCC2)c2ccc(C(=O)NS(=O)(=O)N(C)C)cc21 |  |  | EC50 (HCV replicon; [3]): 30 to 1000 nM; IC50 (HCV NS5B; Table 1a, read-out: IC50*): 10 to 1000 nM |
| O=C(O)c1ccc2c(C3CCCCC3)c3n(c2c1)CC(C(=O)N1CCC2(CC1)OCCO2)=Cc1ccccc1-3 |  |  | EC50 (HCV replicon): 70 to 1000 nM; IC50 (HCV NS5B; IC50*, Table 1): 10 to 1000 nM |

| SMILES | EC50 (HCV replicon; [2]) [nM] | IC50 (HCV NS5B; Table 1, read-out: IC50*) [nM] | further results |
| --- | --- | --- | --- |
| CN(C)S(=O)(=O)NC(=O)c1ccc2c(C3CCCCC3)c3n(c2c1)CC(C(=O)N1CCNC(=O)C1)=Cc1ccccc1-3 | 70 to 1000 | 10 to 1000 |  |
| CN(C)S(=O)(=O)NC(=O)c1ccc2c(C3CCCCC3)c3n(c2c1)CC(C(=O)N1CCC(N2CC[C@H](F)C2)CC1)=Cc1ccccc1-3 | 70 to 1000 | 10 to 1000 |  |
| COC(=O)c1ccc2c(C3CCCCC3)c3n(c2c1)CC(C(=O)N1CCCC(C(N)=O)C1)=Cc1ccccc1-3 (stereo not shown) | 1000 to 10000 | > 1000 |  |
| Cn1ncc(CNC(=O)c2ccc3c(C4CCCCC4)c4n(c3c2)CC(C(=O)N2CCOCC2)=Cc2ccccc2-4)n1 | 1000 to 10000 | 10 to 1000 |  |
| COc1ccc2c(c1)C=C(C(=O)N(CC(=O)N(C)C)CC(=O)N(C)C)Cn1c-2c(C2CCCCC2)c2ccc(C(=O)NS(=O)(=O)N(C)C)cc21 |  |  | EC50 (HCV replicon; [1]): 30 to 1000 nM; IC50 (HCV NS5B; Table 1b, read-out: IC50*): < 20 nM |
| CON(C)S(=O)(=O)NC(=O)c1ccc2c(C3CCCCC3)c3n(c2c1)CC(C(=O)N1CCOCC1)=Cc1ccccc1-3 [drawing 100] | 70 to 1000 | 10 to 1000 |  |
| COC(=O)c1ccc2c(C3CCCCC3)c3n(c2c1)CC(C(=O)N1CCOC(CO)C1)=Cc1c(OC)cccc1-3 (stereo not shown) |  |  | EC50 (HCV replicon; [1]): > 10000 nM; IC50 (HCV NS5B; Table 1b, read-out: IC50*): > 12500 nM |
| CC(=O)N1CCN(C(=O)C2=Cc3ccccc3-c3c(C4CCCCC4)c4ccc(C(=O)NS(=O)(=O)N5CCOCC5)cc4n3C2)CC1 | 70 to 1000 | 10 to 1000 |  |
| COc1ccc2c(c1)CC(C(=O)N1CCN(CCOCCO)CC1)Cn1c-2c(C2CCCCC2)c2ccc(C(=O)NS(=O)(=O)N(C)C)cc21 (stereo not shown) |  |  | EC50 (HCV replicon; [1]): 30 to 1000 nM; IC50 (HCV NS5B; Table 1b, read-out: IC50*): 20 to 1000 nM |
| O=C(O)c1ccc2c(C3CCCCC3)c3n(c2c1)CC(C(=O)N1CCN(c2ncccn2)CC1)=Cc1ccccc1-3 | 70 to 1000 | 10 to 1000 |  |
| CN1CCCC(CN(C)C(=O)C2=Cc3ccccc3-c3c(C4CCCCC4)c4ccc(C(=O)O)cc4n3C2)C1 (stereo not shown) | 70 to 1000 | 10 to 1000 |  |
| O=C(O)c1ccc2c(C3CCCCC3)c3n(c2c1)C/C(=N/O)Cc1ccccc1-3 | 1000 to 10000 | 10 to 1000 |  |
| C[C@@H]1CN(CCNC(=O)C2=Cc3ccccc3-c3c(C4CCCCC4)c4ccc(C(=O)NS(=O)(=O)N(C)C)cc4n3C2)C[C@H](C)O1 [drawing 130] | 70 to 1000 | 10 to 1000 |  |
| COc1ccc2c(c1)C=C(C(=O)N1CC(N)C1)Cn1c-2c(C2CCCCC2)c2ccc(C(=O)NS(=O)(=O)N(C)C)cc21 |  |  | EC50 (HCV replicon; [1]): 30 to 1000 nM; IC50 (HCV NS5B; Table 1b, read-out: IC50*): 20 to 1000 nM |
| O=C(Nc1nccs1)C1=Cc2ccccc2-c2c(C3CCCCC3)c3ccc(C(=O)O)cc3n2C1 | 1000 to 10000 | 10 to 1000 |  |
| O=C(O)c1ccc2c(C3CCCCC3)c3n(c2c1)CC(C(=O)N1C2CCC1CC2)=Cc1ccccc1-3 |  | 10 to 1000 | EC50 (HCV replicon): 70 to 1000 nM |
| O=C(NS(=O)(=O)N1CCOCC1)c1ccc2c(C3CCCCC3)c3n(c2c1)CC(C(=O)N1CCC(N2CCOCC2)CC1)=Cc1ccccc1-3 | 70 to 1000 | 10 to 1000 |  |
| COc1ccc2c(c1)CC(C(=O)N1CCC(CO)CC1)Cn1c-2c(C2CCCCC2)c2ccc(C(=O)NS(=O)(=O)N(C)C)cc21 (stereo not shown) |  |  | EC50 (HCV replicon; [1]): 30 to 1000 nM; IC50 (HCV NS5B; Table 1b, read-out: IC50*): 20 to 1000 nM |
| C[C@@H]1CN(C(=O)C2=Cc3ccccc3-c3c(C4CCCCC4)c4ccc(C(=O)NCCN(C)C)cc4n3C2)C[C@H](C)O1 | 1000 to 10000 | 10 to 1000 |  |
